Values joined by “and” are separate entries in the source; they are usually repeats but may differ in a detail not shown here. Equal entries are not always repeated.
Columns and labels:
[1] = tested on: human pulmonary arterial smooth muscle cells; conditions: cited from earlier work
[2] = tested on: critical limb ischemia; test: Open-label study of subcutaneous treprostinil in critical limb ischemia (Example X); format: in vivo, human
From the text: The planned enrollment was ten patients. All patients were to have Fontaine Stage III-IV or Rutherford Class 4-6 disease and ankle brachial indexes (ABI) from 0-0.55 in the most affected limb or the limb containing the reference ischemic wound for wound healing assessments. […] Any condition or abnormal laboratory value which, based on information in the treprostinil package insert, would constitute an unacceptable risk to the patient's safety, also was an exclusion criterion. Patients could not have been in an investigational trial within the past 30 days or been a non-responder to chronic prostanoid treatment in the past 30 days.
After the completion of baseline assessments, treprostinil therapy was initiated in the clinic. […] Patients and/or a caregiver were trained to administer treprostinil on an outpatient basis using an ambulatory subcutaneous infusion pump (Minimed, Sylmar, Calif., Model 407C). Each patient was to be initiated at a dose of 2.5 ng/kg/min or lower, with the dose titrated based on tolerability. Dose increases were to be 1.25-2.5 ng/kg/min per week. The maximum allowed dose was 15 ng/kg/min and the minimum allowed dose was 0.625 ng/kg/min. The patients were instructed to change the subcutaneous infusion site every three days.
Patients returned to the clinic for assessments at Weeks 2, 6, and 12. Treprostinil treatment was terminated by gradually decreasing the infusion rate (over a period of 1-4 hours, as clinically indicated) after the Week 12 visit assessments were completed.
Safety was assessed in all patients using adverse event (AEs) and physical examination findings. Signs and symptoms of CLI or worsening CLI were not considered to be AEs unless found to be different in causality, intensity, or frequency.
Rest pain was assessed in all patients using a visual analog scale (VAS) for rest pain. The patients were asked to rate their leg pain on a scale of 0-10 with 0 reflecting no pain and 10 reflecting the worst pain. The scale was printed and the patients were asked to place a mark on the number that reflected their pain experience. Patients were asked to rate the worst pain they had experienced since the previous assessment and their average pain during that time frame. Analgesic medication use was assessed by the investigator as unchanged, increased, decreased, or discontinued.
Wound assessments were to be conducted in patients who had at least one ischemic wound at baseline. If the patient had multiple ischemic wounds, then one or two (usually the largest or most severe wounds) were be selected as reference wounds. The selected wound(s) was photographed for documentation. When possible, the outside edge of the wound(s) was traced for area measurement. The tracings were used to calculate wound area by measuring the length and width of the wound. Not all wounds were of the nature that tracings were possible for example, wounds between toes or on the heel with extensive tissue loss were not traced. These wounds were described and photographed.
In patients who had wounds other than those chosen as reference wounds, the overall status (i.e., worse, the same, improved, or healed) of each additional wound also was documented at each study visit. Any new wounds that occurred during the study also were carefully documented.

[3] = tested on: patients with class III or class IV heart failure; conditions: cited from earlier work
[4] = tested on: digital ischemic lesions; test: Subcutaneous Treprostinil in scleroderma patients with digital ischemic lesions (Example VII); format: in vivo, human; conditions: continuous subcutaneous infusion, 12 weeks, increasing dose
Experimental: Scleroderma patients having at least one lesion (i.e., small sore or area of tissue gangrene) present on a hand or finger are dosed with increasing amounts of Treprostinil over 12 weeks. The medication is delivered by a small pump that is connected to a catheter placed under the skin. In this manner, increasing dosages of Treprostinil are administered to patients by chronic continuous subcutaneous infusion. Specifically, a 1.0 mg/mL formulation of Treprostinil sodium) (REMODULIN®) is administered subcutaneously using a standard micro-infusion, positive-pressure infusion pump designed for subcutaneous drug delivery (Mini-Med). Patients receive an initial dose of 2.5 ng/kg/min of study drug. […] After that, the dose is raised by 2.50 ng/kg/min each week until not tolerated or once a target dose is reached. Dosing is increased weekly unless not tolerated by the patient. […] One example of a target dose is 15 ng/kg/min. The minimum dose is usually not less than 0.625 ng/kg/min.

[5] = tested on: digital ischemic lesions; test: Study of Treprostinil for digital ischemic lesions in patients with systemic sclerosis (Example VIII); format: in vivo, human
Experimental: This study involved 12 subjects with diffuse or limited scleroderma with at least one DIL that had been present for 2 months or more (Table 1). Subjects who completed the study were treated for 12 weeks with Treprostinil and followed for another 8 weeks after drug discontinuation (FIG. 1). […] Assessments were performed at baseline, weeks 2, 6, 12, 16, and 20. At each visit, the largest (target) lesion and other prominent DIL were measured by recording the largest diameter of the lesions. DIL were counted and photographed. Patient and physician global assessment of ulcers as well as patient assessment of disability from DIL were measured using visual analogue scales (VAS) at each visit.

[6] = tested on: human alveolar macrophages; conditions: cited from earlier work
[7] = individual patients 1-10 (one table line each), versus baseline pain medication, listed as treprostinil

## CCCCC[C@H](O)CC[C@@H]1[C@H]2Cc3cccc(OCC(=O)O)c3C[C@H]2C[C@H]1O [UT-15, 9-deoxy-2′,9-alpha-methano-3-oxa-4,5,6-trinor-3,7-(1′,3′-interphenylene)-13,14-dihydro-prostaglandin F1]
[1]
  proliferation of human pulmonary arterial smooth muscle cells: inhibits proliferation
[2]; Patient 3
  wounds during the twelve weeks of drug treatment: remained stable
[2]; Patient 3, 7 at baseline
  average rest pain score: 4
[2]; Patient 3, reduced from 8
  worst rest pain score: 4
[2]; baseline to week 12
  reduction in average rest pain: 58%
  reduction in the worst rest pain: 64%
[2]; cholecystectomy, worsening congestive heart failure
  relation of SAEs to treprostinil: unlikely to be related
[2]; conclusion of study
  pain relief: pain relief in all patients
[2]; [7]
  Pain Medication Consumption Week 2: No change (5×) and Less (4×) and PERCOCET ®
  Pain Medication Consumption Week 6: Less (5×) and Increased and No change (2×) and None and Discontinued
  Pain Medication Consumption Week 12: Darvocet and PERCOCET ® and None (2×) and No change (4×)
[2]; of ten patients
  patients who discontinued drug prematurely: Two
  patients with complete healing of their wounds: Three
  patients with diarrhea: one
  patients with mild headache: one
  patients with mild jaw pain: Two
[2]; patient 5, 15 ng/kg/min
  week of complete wound closure: 6 week
[2]; patient 7, 7.5 ng/kg/min
  week of complete resolution of rest pain: 6 week
  week of complete wound closure: 12 week
[2]; patient 10, 15 ng/kg/min
  week of complete resolution of ischemic rest pain: 2 week
  week of complete wound closure: 12 week
[2]; ten patients
  new wounds during the trial: No patient developed a new wound
  serious adverse events (SAEs): two
[2]; ten patients, sc infusion up to 15 ng/kg/min
  most common side effect: infusion site pain
[2]; week 12
  patients switched to a non-sedating, non-narcotic pain medication: one
  patients with complete pain relief who discontinued all pain medications: two
  patients with increased consumption of pain medication: one
  patients with medication usage unchanged from baseline: 4 patients
  patients with reduced pain medication consumption: three
[2]; week 12, baseline mean 7.1
  average rest pain, mean VAS (0-10): 2.4
[2]; week 12, baseline mean 8.4
  worst rest pain, mean VAS (0-10): 2.5
[3]
  vasodilator effects: vasodilator effects
[4]
  lesions present before treatment: reduction in the number, size and severity
  new lesions associated with scleroderma: fewer new lesions
[5]; after 12 weeks of therapy
  physician global assessment of DIL severity, average improvement: 60%
[5]; after drug discontinuation
  patients who developed new ulcers during the 8-week follow-up period after drug discontinuation: two of three
[5]; any patients
  new ulcers while receiving continuous therapy: No new ulcers
[5]; by week 6, all five subjects
  subjective measures of severity of DIL (patient and physician global assessment, DIL disability VAS): marked improvements
[5]; by week 12
  DIL disability VAS score, average improvement: 77%
  patient global assessment, average improvement: 89%
[5]; continuous sc infusion, 12 weeks
  average decrease in the size of baseline DIL: 65%
[5]; four subjects who completed 12 weeks of active therapy, sc infusion up to 15 ng/kg/min
  target lesions: improved in all patients
[5]; of 12 subjects
  subjects unable to complete the study due to intolerable injection site pain: five
[5]; of the four subjects who completed 12 weeks
  subjects with complete resolution of their target lesions: three
[6]
  inflammatory cytokine (tumor necrosis factor-α, interleukin-1β, interleukin-6, GM-CSF) secretion and gene expression: inhibits

— US10076505B2, “Inhalation formulations of Treprostinil” (priority 2003, dated 2018)
